The record followed here is ChEMBL document CHEMBL3132744, “Structureactivity relationship studies of miniproteins targeting the androgen receptorcoactivator interaction” (Medchemcomm, 2013).

Square brackets hold non-standard residues; d marks the D form. Peptide text beside a SMILES is read from it. Phe(4-Cl) = N[C@@H](Cc1ccc(Cl)cc1)C(=O)O; Phe(2-Cl) = N[C@@H](Cc1ccccc1Cl)C(=O)O; Cha = N[C@@H](CC1CCCCC1)C(=O)O

In this experiment the target is T1, Androgen receptor (Homo sapiens, UniProt P10275).
T1 sequence (P10275 whole entry): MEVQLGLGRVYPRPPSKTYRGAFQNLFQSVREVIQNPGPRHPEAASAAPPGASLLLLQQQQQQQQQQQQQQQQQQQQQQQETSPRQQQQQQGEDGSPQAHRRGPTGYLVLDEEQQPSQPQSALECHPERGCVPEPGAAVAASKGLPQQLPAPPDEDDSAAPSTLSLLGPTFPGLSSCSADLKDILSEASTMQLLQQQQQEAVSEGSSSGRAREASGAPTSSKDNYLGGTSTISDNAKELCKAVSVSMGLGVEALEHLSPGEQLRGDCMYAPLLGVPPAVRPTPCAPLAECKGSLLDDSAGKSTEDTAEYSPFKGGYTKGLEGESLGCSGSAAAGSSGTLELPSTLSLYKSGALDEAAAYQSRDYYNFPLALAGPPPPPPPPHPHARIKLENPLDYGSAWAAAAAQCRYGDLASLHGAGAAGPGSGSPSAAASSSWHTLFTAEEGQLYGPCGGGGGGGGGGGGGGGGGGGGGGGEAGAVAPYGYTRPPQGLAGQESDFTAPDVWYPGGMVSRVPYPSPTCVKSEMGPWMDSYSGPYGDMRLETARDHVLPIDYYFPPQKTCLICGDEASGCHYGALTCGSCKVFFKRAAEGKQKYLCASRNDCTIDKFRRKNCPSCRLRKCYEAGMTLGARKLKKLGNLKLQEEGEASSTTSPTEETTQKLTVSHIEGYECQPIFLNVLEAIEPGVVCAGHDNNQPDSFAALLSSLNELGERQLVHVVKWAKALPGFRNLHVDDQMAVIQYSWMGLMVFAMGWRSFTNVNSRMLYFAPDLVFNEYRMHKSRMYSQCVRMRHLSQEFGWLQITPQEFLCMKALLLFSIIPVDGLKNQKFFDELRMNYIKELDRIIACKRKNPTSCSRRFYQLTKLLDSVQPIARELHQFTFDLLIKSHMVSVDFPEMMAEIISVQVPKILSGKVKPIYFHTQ
Put plainly: Displacement of fluorescein-CSSRFESLFAGEKESR from human androgen receptor-LBD after 1 hr by fluorescence polarization assay.
As usually defined, the Ki is the dissociation constant of the complex between target and ligand, obtained from inhibition or displacement. In the case of `CC[C@H](C)[C@H](NC(=O)[C@H](CS)NC(=O)[C@H](Cc1ccc(Cl)cc1)NC(=O)[C@H](CC(C)C)NC(=O)[C@H](CCC(=O)O)NC(=O)[C@H](CS)NC(=O)[C@H](Cc1ccccc1)NC(=O)[C@H](CCCNC(=N)N)NC(=O)[C@@H](N)CC(N)=O)C(=O)N[C@@H](CCC(N)=O)C(=O)NCC(=O)N[C@H](C(=O)NCC(=O)N[C@@H](CC(=O)O)C(=O)N[C@H](C(=O)N[C@@H](CCCCN)C(=O)N[C@@H](C)C(=O)N[C@@H](CS)C(=O)N[C@@H](CCC(=O)O)C(=O)N[C@@H](Cc1c[nH]c2ccccc12)C(=O)N[C@@H](C)C(=O)N[C@@H](CS)C(=O)N[C@@H](CCC(N)=O)C(=O)O)C(C)C)[C@@H](C)O` (H-NRFCEL[Phe(4-Cl)]CIQGTGDVKACEWACQ-OH), the Ki is 32 µM.

In turn, `CC[C@H](C)[C@H](NC(=O)[C@H](CS)NC(=O)[C@H](Cc1ccccc1)NC(=O)[C@H](CCSC)NC(=O)[C@H](CCC(=O)O)NC(=O)[C@H](CS)NC(=O)[C@H](Cc1ccccc1)NC(=O)[C@H](CCCNC(=N)N)NC(=O)[C@@H](N)CC(N)=O)C(=O)N[C@@H](CCC(N)=O)C(=O)NCC(=O)N[C@H](C(=O)NCC(=O)N[C@@H](CC(=O)O)C(=O)N[C@H](C(=O)N[C@@H](CCCCN)C(=O)N[C@@H](C)C(=O)N[C@@H](CS)C(=O)N[C@@H](CCC(=O)O)C(=O)N[C@@H](Cc1c[nH]c2ccccc12)C(=O)N[C@@H](C)C(=O)N[C@@H](CS)C(=O)N[C@@H](CCC(N)=O)C(=O)O)C(C)C)[C@@H](C)O` (H-NRFCEMFCIQGTGDVKACEWACQ-OH) had a Ki of 4.1 µM.

In turn, `CC[C@H](C)[C@H](NC(=O)[C@H](CS)NC(=O)[C@H](Cc1ccccc1)NC(=O)[C@H](CC(C)C)NC(=O)[C@H](CCCCN)NC(=O)[C@H](CS)NC(=O)[C@H](Cc1ccccc1)NC(=O)[C@H](CCCNC(=N)N)NC(=O)[C@@H](N)CC(N)=O)C(=O)N[C@@H](CCC(N)=O)C(=O)NCC(=O)N[C@H](C(=O)NCC(=O)N[C@@H](CC(=O)O)C(=O)N[C@H](C(=O)N[C@@H](CCCCN)C(=O)N[C@@H](C)C(=O)N[C@@H](CS)C(=O)N[C@@H](CCC(=O)O)C(=O)N[C@@H](Cc1c[nH]c2ccccc12)C(=O)N[C@@H](C)C(=O)N[C@@H](CS)C(=O)N[C@@H](CCC(N)=O)C(=O)O)C(C)C)[C@@H](C)O` (H-NRFCKLFCIQGTGDVKACEWACQ-OH) came in with a Ki of 2.7 µM. Compared with the last molecule, the Ki is about 1.5-fold lower.

For `CC[C@H](C)[C@H](NC(=O)[C@H](CS)NC(=O)[C@H](CC(C)C)NC(=O)[C@H](CC(C)C)NC(=O)[C@H](CCC(=O)O)NC(=O)[C@H](CS)NC(=O)[C@H](CC(C)C)NC(=O)[C@H](CCCNC(=N)N)NC(=O)[C@@H](N)CC(N)=O)C(=O)N[C@@H](CCC(N)=O)C(=O)NCC(=O)N[C@H](C(=O)NCC(=O)N[C@@H](CC(=O)O)C(=O)N[C@H](C(=O)N[C@@H](CCCCN)C(=O)N[C@@H](C)C(=O)N[C@@H](CS)C(=O)N[C@@H](CCC(=O)O)C(=O)N[C@@H](Cc1c[nH]c2ccccc12)C(=O)N[C@@H](C)C(=O)N[C@@H](CS)C(=O)N[C@@H](CCC(N)=O)C(=O)O)C(C)C)[C@@H](C)O` (H-NRLCELLCIQGTGDVKACEWACQ-OH), affinity was put at a Ki of 13 µM. This Ki is about 4.8-fold higher than that of the molecule before.

With `CC[C@H](C)[C@H](NC(=O)[C@H](CS)NC(=O)[C@H](Cc1ccccc1)NC(=O)[C@H](CC(C)C)NC(=O)[C@H](CCC(=O)O)NC(=O)[C@H](CS)NC(=O)[C@H](CC1CCCCC1)NC(=O)[C@H](CCCNC(=N)N)NC(=O)[C@@H](N)CC(N)=O)C(=O)N[C@@H](CCC(N)=O)C(=O)NCC(=O)N[C@H](C(=O)NCC(=O)N[C@@H](CC(=O)O)C(=O)N[C@H](C(=O)N[C@@H](CCCCN)C(=O)N[C@@H](C)C(=O)N[C@@H](CS)C(=O)N[C@@H](CCC(=O)O)C(=O)N[C@@H](Cc1c[nH]c2ccccc12)C(=O)N[C@@H](C)C(=O)N[C@@H](CS)C(=O)N[C@@H](CCC(N)=O)C(=O)O)C(C)C)[C@@H](C)O` (H-NR[Cha]CELFCIQGTGDVKACEWACQ-OH), the Ki was 11 µM.

With `CC[C@H](C)[C@H](NC(=O)[C@H](CS)NC(=O)[C@H](Cc1ccccc1)NC(=O)[C@H](CC(C)C)NC(=O)[C@H](CCC(=O)O)NC(=O)[C@H](CS)NC(=O)[C@H](Cc1ccccc1Cl)NC(=O)[C@H](CCCNC(=N)N)NC(=O)[C@@H](N)CC(N)=O)C(=O)N[C@@H](CCC(N)=O)C(=O)NCC(=O)N[C@H](C(=O)NCC(=O)N[C@@H](CC(=O)O)C(=O)N[C@H](C(=O)N[C@@H](CCCCN)C(=O)N[C@@H](C)C(=O)N[C@@H](CS)C(=O)N[C@@H](CCC(=O)O)C(=O)N[C@@H](Cc1c[nH]c2ccccc12)C(=O)N[C@@H](C)C(=O)N[C@@H](CS)C(=O)N[C@@H](CCC(N)=O)C(=O)O)C(C)C)[C@@H](C)O` (H-NR[Phe(2-Cl)]CELFCIQGTGDVKACEWACQ-OH), the Ki came out at 2.2 µM.

In turn, `CC[C@H](C)[C@H](NC(=O)[C@H](CS)NC(=O)[C@H](Cc1ccccc1)NC(=O)[C@H](CC(C)C)NC(=O)[C@H](CCC(=O)O)NC(=O)[C@H](CS)NC(=O)[C@H](Cc1ccc(Cl)cc1)NC(=O)[C@H](CCCNC(=N)N)NC(=O)[C@@H](N)CC(N)=O)C(=O)N[C@@H](CCC(N)=O)C(=O)NCC(=O)N[C@H](C(=O)NCC(=O)N[C@@H](CC(=O)O)C(=O)N[C@H](C(=O)N[C@@H](CCCCN)C(=O)N[C@@H](C)C(=O)N[C@@H](CS)C(=O)N[C@@H](CCC(=O)O)C(=O)N[C@@H](Cc1c[nH]c2ccccc12)C(=O)N[C@@H](C)C(=O)N[C@@H](CS)C(=O)N[C@@H](CCC(N)=O)C(=O)O)C(C)C)[C@@H](C)O` (H-NR[Phe(4-Cl)]CELFCIQGTGDVKACEWACQ-OH) yielded a Ki of 2.3 µM. This Ki and that of the molecule before are within 1.5-fold of each other.

`CC[C@H](C)[C@H](NC(=O)[C@H](CS)NC(=O)[C@H](Cc1ccccc1)NC(=O)[C@H](CC(C)C)NC(=O)[C@H](CCC(=O)O)NC(=O)[C@H](CS)NC(=O)[C@H](Cc1ccccc1)NC(=O)[C@H](CCCNC(=N)N)NC(=O)[C@@H](N)CO)C(=O)N[C@@H](CCC(N)=O)C(=O)NCC(=O)N[C@H](C(=O)NCC(=O)N[C@@H](CC(=O)O)C(=O)N[C@H](C(=O)N[C@@H](CCCCN)C(=O)N[C@@H](C)C(=O)N[C@@H](CS)C(=O)N[C@@H](CCC(=O)O)C(=O)N[C@@H](Cc1c[nH]c2ccccc12)C(=O)N[C@@H](C)C(=O)N[C@@H](CS)C(=O)N[C@@H](CCC(N)=O)C(=O)O)C(C)C)[C@@H](C)O` (H-SRFCELFCIQGTGDVKACEWACQ-OH) came in with a Ki of 2.5 µM.
